According to publication PMC8243516, “Inhibition of lysosomal phospholipase A2 predicts drug-induced phospholipidosis” (Journal of Lipid Research, 2021):
Where a name gives a salt, the structure may show the parent alone. Read-outs that look alike come from different tables or passages of the source.

Key:
[1] = ref Pubchem and chEMBL databases; cited from earlier work
[2] = tested on: phospholipidosis; conditions: cited from earlier work
[3] = target: T1, recombinant mouse LPLA2 (PLA2G15) (Mus musculus, UniProt Q8VEB4); experiment: Transacylase activity of LPLA2 (1-O-acyl-N-acetylsphingosine synthase, cell-free liposome assay); type: biochemical
T1 construct: purchased Proteos Inc. (Kalamazoo, MI)
T1 sequence (Q8VEB4 34-412): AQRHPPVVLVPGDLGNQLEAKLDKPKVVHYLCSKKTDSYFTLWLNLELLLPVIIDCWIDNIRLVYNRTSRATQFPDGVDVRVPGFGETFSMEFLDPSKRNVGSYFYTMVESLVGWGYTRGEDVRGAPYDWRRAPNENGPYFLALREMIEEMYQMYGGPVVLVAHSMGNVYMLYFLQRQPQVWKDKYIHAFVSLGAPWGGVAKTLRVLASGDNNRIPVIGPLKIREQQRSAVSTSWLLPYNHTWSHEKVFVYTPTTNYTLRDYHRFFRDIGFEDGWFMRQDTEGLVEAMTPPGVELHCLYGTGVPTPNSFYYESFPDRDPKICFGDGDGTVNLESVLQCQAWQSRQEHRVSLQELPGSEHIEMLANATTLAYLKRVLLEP

[4] = target: T2, LPLA2 (Mus musculus, UniProt Q8VEB4); experiment: LPLA2 thermal stability measurement (SYPRO Orange Tm); type: binding
T2 construct: purchased Proteos Inc. (Kalamazoo, MI)
T2 sequence (Q8VEB4 34-412): T1 sequence (Q8VEB4 34-412)

[5] = phospholipidosis reported in vitro, Refs of Table 1
[6] = 1-O-acyl N-acetylsphingosine synthase activity, pH 4.5, DOPC/sulfatide liposomes, read-out: LPLA2 IC50

| SMILES | pKa (basic) [1] | In Vitro PLD [2, 5] | IC50 [3, 6] [µM] | (ΔTm)c-(ΔTm)d, difference in melting temperature of LPLA2 alone or in the presence of drug ([4]; N=3 ± SD) [°C] | other results |
| --- | --- | --- | --- | --- | --- |
| COc1ccc(CCN2CCC(Nc3nc4ccccc4n3Cc3ccc(F)cc3)CC2)cc1 [Astemizole, 1-(4-fluorobenzyl)-2-(1-[4-methoxyphenethyl]piperidin-4-yl)aminobenzimidazole] | 8.75 | Yes |  |  |  |
| CC(C)COCC(CN(Cc1ccccc1)c1ccccc1)N1CCCC1.Cl (centres unmarked) [Bepridil hydrochloride, 1-isobutoxy-2-pyrrolidino-3-(N-benzylanilino) propane hydrochloride] | 9.16 |  | 7.17 |  | In Vitro PLD [2]: Yes |
| CC(C)C[C@H]1C(=O)N2CCC[C@H]2[C@]2(O)O[C@](NC(=O)[C@@H]3C=C4c5cccc6[nH]c(Br)c(c56)C[C@H]4N(C)C3)(C(C)C)C(=O)N12 [Bromocriptine, (4R,7R)-10-bromo-N-[(1S,2S,4R,7S)-2-hydroxy-7-(2-methylpropyl)-5,8-dioxo-4-(propan-2-yl)-3-oxa-6,9-diazatricyclo[7.3.0.0ˆ{2,6}]dodecan-4-yl]-6-methyl-6,11diazatetracyclo[7.6.1.0ˆ{2,7}.0ˆ{12,16}]hexadeca-1(16),2,9,12,14-pentaene-4-carboxamide] | 6.71 | Yes | 125 |  |  |
| CN1CCC[C@@H]1CCO[C@](C)(c1ccccc1)c1ccc(Cl)cc1 [Clemastine] | 9.55 | Yes |  |  |  |
| CC(C)(C)NCC(O)c1cc(Cl)c(N)c(Cl)c1.Cl (stereo not drawn) [Clenbuterol, 4-amino-3,5-dichloro-α-[[(1,1-dimethylethyl)amino]methyl]-benzenemethanol, monohydrochloride] |  | Yes |  | 1.20 ± 0.23 | LPLA2 inhibition (in words) [3]: millimolar concentrations; IC50 ([3]; LPLA2 IC50): 7300 µM |
| CC(C)N=c1cc2n(-c3ccc(Cl)cc3)c3ccccc3nc-2cc1Nc1ccc(Cl)cc1 [Clofazimine, N,5-bis(4-chlorophenyl)-3,5-dihydro-3-(isopropylimino)phenazin-2-amine] |  | Yes | 10.8 | -0.97 ± 0.1 |  |
| CN(C)CCOC(c1ccccc1)c1ccccc1 [Diphenhydramine] |  | Yes |  |  |  |
| C[C@]12C=CC(=O)N[C@@H]1CC[C@@H]1[C@@H]2CC[C@]2(C)[C@@H](C(=O)Nc3cc(C(F)(F)F)ccc3C(F)(F)F)CC[C@@H]12 [Dutasteride, (1S,2R,7R,10S,11S,14S,15S)-N-[2,5-bis (trifluoromethyl)phenyl]-2,15-dimethyl-5-oxo-6-azatetracyclo[8.7.0.0^2,^7.0^11,^15]heptadec-3-ene-14-carboxamide] | 2.17 | Yes | 1050 |  |  |
| O=C(O)c1cc(O)ccc1O [Gentisic acid, 2,5-dihydroxybenzoic acid sodium salt] |  | Yes |  |  |  |
| CN1CCC(=C2c3ccccc3CC(=O)c3sccc32)CC1 [Ketotifen] |  | Yes | 19.7 | 0.10 ± 0.0 |  |
| CCOC(=O)N1CCC(=C2c3ccc(Cl)cc3CCc3cccnc32)CC1 [Loratadine, ethyl 4-{13-chloro-4-azatricyclo[9.4.0.0^3,^8]pentadeca-1(11),3(8),4,6,12,14-hexaen-2-ylidene}piperidine-1-carboxylate] |  | Yes | 8.94 |  |  |
| CC12CC3CC(C)(C1)CC(N)(C3)C2.Cl [Memantine, 3,5-Dimethyl-1-adamantanamine hydrochloride] |  | Yes | 35.7 | 2.00 ± 0.2 |  |
| CN(C)CCN(Cc1cccs1)c1ccccn1 [Methapyrilene, N-[2-(dimethylamino)ethyl]-N-[(thiophen-2-yl)methyl]pyridin-2-amine] | 8.85 | Yes |  |  |  |
| CN1CCN2c3ccccc3Cc3ccccc3C2C1 (centres unmarked) [Mianserin, 5-methyl-2,5 diazatetracyclo [13.4.0.0^2,^7.0^8,^1³] nonadeca-1(19),8,10,12,15,17-hexaene] | 6.9 | Yes |  |  |  |
| CN1CCN2c3ncccc3Cc3ccccc3C2C1 (centres unmarked) [Mirtazapine, 5-methyl-2,5,19-triazatetracyclo [13.4.0.0^2,^7.0^8,^1³] nonadeca-1(15),8,10,12,16,18-hexaene] | 6.67 |  | 8.7 | -1.30 ± 0.7 |  |
| Clc1ccc(C(c2ccccc2Cl)C(Cl)Cl)cc1 (centres unmarked) [Mitotane, 1-chloro-4-[2,2-dichloro-1-(2-chlorophenyl)ethyl] benzene] |  | Yes | 132 |  | (ΔTm)c-(ΔTm)d, difference in melting temperature of LPLA2 alone or in the presence of drug [4]: 0.47 ± 0.1 °C |
| c1ccc2c(CC3=NCCN3)cccc2c1 [Naphazoline, 2-(naphthalen-1-ylmethyl)-4,5-dihydro-1H-imidazole] | 10.19 | Yes |  |  |  |
| CCN(CC)CCc1nc(-c2ccccc2)no1 [Oxolamine citrate, diethyl[2-(3-phenyl-1,2,4-oxadiazol-5-yl)ethyl]amine] | 8.96 | Yes | 369 |  |  |
| CCN(CC)CC#CCOC(=O)C(O)(c1ccccc1)C1CCCCC1 (stereo not drawn) [Oxybutynin, α-phenylcyclohexaneglycolic acid 4-(diethylamino)-2-butynyl ster hydrochloride] | 8.77 | Yes |  |  |  |
| OCCN1CCN(CCCN2c3ccccc3Sc3ccc(Cl)cc32)CC1 [Perphenazine] | 8.21 |  |  |  | IC50 ([3]; LPLA2 IC50, 1-O-acyl N-acetylsphingosine synthase activity, pH 4.5, DOPC/sulfatide liposomes): 3.92 µM; (ΔTm)c-(ΔTm)d, difference in melting temperature of LPLA2 alone or in the presence of drug [4]: -0.41 ± 0.2 °C |
| CCOc1ccc(NC(C)=O)cc1 [Phenacetin, N-(4-ethoxyphenyl) acetamide] | -4.2 |  | 2140 | -2.30 ± 0.6 |  |
| O=C(Nc1cccc2c(=O)cc(-c3nnn[nH]3)oc12)c1ccc(OCCCCc2ccccc2)cc1 [Pranlukast, N-[4-oxo-2-(2H-1,2,3,4-tetrazol-5-yl)-4H-chromen-8-yl]-4-(4-phenylbutoxy)benzamide] | -1.7 | Yes |  | 0 |  |
| CCCN(CCC)CCc1cccc2c1CC(=O)N2 [Ropinirole, 4-[2-(dipropylamino)ethyl]-2,3-dihydro-1H-indol-2-one] | 10.17 | Yes |  |  |  |
| O=C(CCCN1CCC2(CC1)C(=O)NCN2c1ccccc1)c1ccc(F)cc1 [Spiperone, 8-[3-(p-fluor benzoyl)propyl]-1-phenyl-1,3,8-triazaspiro [4.5]decan-4-one] |  | Yes | 519 | 1.86 ± 0.1 |  |
| CC1=C(CC(=O)O)c2cc(F)ccc2/C1=C\c1ccc([S+](C)[O-])cc1 (centres unmarked) [Sulindac, 2-[(1Z)-5-fluoro-1-[(4-methanesulfinylphenyl)methylidene]-2-methyl-1H-inden-3-yl]acetic acid] |  | Yes | 10.9 | -0.10 ± 0.0 |  |
| Nc1c2c(nc3ccccc13)CCCC2 [Tacrine, 1,2,3,4-tetrahydroacridin-9-amine] |  |  |  |  | In Vitro PLD [2]: Yes |
